Test results from patent US11136292B2, “Plant growth regulator compounds” (SYNGENTA PARTICIPATIONS AG, priority 2016, dated 2021).
Read-outs that look alike come from different tables or passages of the source.

Tested on: NK Falkone 2015 corn seeds
Assay: Corn seed germination under cold stress (Example B1)
Assay type: in vivo
Details: Zea mays, cold stress 15° C.; for change in vivo at 2 µM: Rate 2 μM; for change in vivo at 10 µM: Rate 10 μM; for change in vivo at 50 µM: Rate 50 μM; for change in vivo at 250 µM: Rate 250 μM; for change in vivo at 0.4 µM: Rate 0.4 μM
Method: The effect of compounds of formula (I) on the germination of NK Falkone 2015 corn seeds under cold stress was evaluated as follows. NK Falkone corn seeds were sorted by size using 2 sieves, one excluding very big seeds and the other with round holes of 8 to 9 mm diameter. The seeds retained by the latter sieve were used for the germination test. The corn seeds were placed in 24 well plates (each plate was considered as one experimental unit or replicate). Germination was initiated by the addition of 250 μl of distilled water containing 0.5% DMSO per well as a means for compound solubilization. 8 replicates (ie, 8 plates) were used for each treatment characterization. Plates were sealed using seal foil (Polyolefin Art. Nr. 900320) from HJ-BIOANALYTIK. All plates were placed horizontally on trolleys in a climatic chamber at 15° C. The experiment was laid out in a completely randomized design in climatic chamber with 75% Relative Humidity. Foils were pierced, one hole per well using a syringe after 72 hours for experiments performed at 15° C.
Germination was followed over time by taking photographs at different time points. Image analysis was performed automatically with a macro which was developed using the Image J software. A dynamic analysis of germination was carried out by fitting a logistic curve. Three parameters were calculated from the logistic curve: the T50; the slope and the plateau. All three parameters have a high agronomical relevance and are key requirements to ensure a good early crop-establishment. All the values are expressed as percentages compared to an untreated control. All the three parameters are calculated considering 8 replicates and the kinetic parameters are separately determined for each germination curve. Data in bold indicate germination enhancing statistically significant differences between treated seeds and untreated control (p<0.05). The T50 corresponds to the time needed for half of the seed population to germinate. Higher negative %-values indicate faster germination. The slope indicates how synchronous the germination of the seed population is. Positive values indicate steeper curve; the steeper the curve, the better and more uniform the germination is.

[1] = slope of logistic germination curve, read-out: Slope (% vs control)
[2] = time for half of seeds to germinate, control T50 = 110 hours, read-out: T50 (% vs control)

Structure (SMILES) | change in vivo at 2 µM [1] [%] | change in vivo at 2 µM [2] [%] | change in vivo at 10 µM [1] [%] | change in vivo at 10 µM [2] [%] | change in vivo at 50 µM [1] [%] | change in vivo at 50 µM [2] [%] | change in vivo at 250 µM [1] [%] | change in vivo at 250 µM [2] [%] | change in vivo at 0.4 µM [1] [%] | change in vivo at 0.4 µM [2] [%]
CCOC(=O)/C(=C/OC1C=C(C)C(=O)O1)C1CCc2c1cccc2C(F)(F)F (stereo not shown) [Compound I-70] | 9 | -2.5 | 18.4 | -0.2 | 87.9 | -6.8 | 115 | -8.6 |  | 
CCOC(=O)/C(=C/OC1OC(=O)C(C)=C1C)C1CCc2ccc(C(F)(F)F)cc21 (stereo not shown) [Compound I-73] | -1.1 | -3.5 | 14.2 | -6.3 | 57.8 | -7.8 | 54.1 | -9.2 |  | 
CCOC(=O)/C(=C/OC1OC(=O)C(C)=C1C)C1CCCc2ccccc21 (stereo not shown) [Compound I-75] | 4.9 | -3.5 | 5.6 | -2.6 | 58.4 | -6.5 | 44.2 | -5 |  | 
CCOC(=O)/C(=C/OC1C=C(C)C(=O)O1)C1Cc2ccccc21 (stereo not shown) [Compound I-76] | -5 | -0.7 | 50.6 | -6.4 | 122 | -8.8 |  |  | -5.6 | -0.5
CCOC(=O)/C(=C/OC1OC(=O)C(C)=C1C)C1CCc2ccsc21 (stereo not shown) [Compound I-83] | 6.5 | -3 | 34.1 | -2.2 | 32.6 | -4.8 | 157 | -8.6 |  | 
CCOC(=O)/C(=C/OC1C=C(C)C(=O)O1)C1CCC[C@@]2(C)CCC12 (stereo partly shown) [Compound I-86] | 17.1 | 0.2 | 20.2 | -2.7 | 138 | -9.7 | 150 | -11.2 |  | 
CCOC(=O)/C(=C/OC1C=C(C)C(=O)O1)C1CCOc2ccccc21 (stereo not shown) [Compound I-90] | -10 | 3.2 | -0.32 | 2.8 | 4.6 | 0.45 | 83.6 | -6.7 |  | 
CCOC(=O)/C(=C/OC1OC(=O)C(C)=C1C)C1CCOc2ccccc21 (stereo not shown) [Compound I-91] | -15.3 | 2.5 | -5.4 | 2.7 | 18.8 | -1.5 | 67.4 | -6.1 |  | 
CCOC(=O)/C(=C/OC1OC(=O)C(C)=C1C)C1COc2ccccc21 (stereo not shown) [Compound I-95] | -2 | 1.6 | -13.9 | 1.6 | 2.7 | 0.6 | 81.5 | -6.7 |  | 
CC1=CC(O/C=C2/C(=O)OC3c4ccccc4CC23)OC1=O (stereo not shown) [Prior art 1] | -0.7 | -1.5 | -11.3 | -0.1 | 6.2 | -1.85 | 36.3 | -3.4 |  | 
CC1=C(C)C(O/C=C2/C(=O)OC3c4ccccc4CC23)OC1=O (stereo not shown) [Prior art 2] | -1.3 | -1.5 | 1.4 | 1.7 | 9.6 | -1.6 | 15.8 | -2.1 |  | 
